Source: ChEMBL document CHEMBL1201862, “PubChem BioAssay data set” (2004)
Activity calls are given as the source filed them. No stated cut-off is given here; in the data, actives have a measured IC50 and inactives only a lower limit.

Molecular target: Envelope glycoprotein gp160 (Human immunodeficiency virus 1, UniProt Q6QLK5)
Experiment: inhibitors of HIV fusion peptide binding, primary screen, biochemical, uHTS, fluorescence dequenching (AID 1986)

Envelope glycoprotein gp160, sequence (Q6QLK5 whole entry, the tested form may be a part): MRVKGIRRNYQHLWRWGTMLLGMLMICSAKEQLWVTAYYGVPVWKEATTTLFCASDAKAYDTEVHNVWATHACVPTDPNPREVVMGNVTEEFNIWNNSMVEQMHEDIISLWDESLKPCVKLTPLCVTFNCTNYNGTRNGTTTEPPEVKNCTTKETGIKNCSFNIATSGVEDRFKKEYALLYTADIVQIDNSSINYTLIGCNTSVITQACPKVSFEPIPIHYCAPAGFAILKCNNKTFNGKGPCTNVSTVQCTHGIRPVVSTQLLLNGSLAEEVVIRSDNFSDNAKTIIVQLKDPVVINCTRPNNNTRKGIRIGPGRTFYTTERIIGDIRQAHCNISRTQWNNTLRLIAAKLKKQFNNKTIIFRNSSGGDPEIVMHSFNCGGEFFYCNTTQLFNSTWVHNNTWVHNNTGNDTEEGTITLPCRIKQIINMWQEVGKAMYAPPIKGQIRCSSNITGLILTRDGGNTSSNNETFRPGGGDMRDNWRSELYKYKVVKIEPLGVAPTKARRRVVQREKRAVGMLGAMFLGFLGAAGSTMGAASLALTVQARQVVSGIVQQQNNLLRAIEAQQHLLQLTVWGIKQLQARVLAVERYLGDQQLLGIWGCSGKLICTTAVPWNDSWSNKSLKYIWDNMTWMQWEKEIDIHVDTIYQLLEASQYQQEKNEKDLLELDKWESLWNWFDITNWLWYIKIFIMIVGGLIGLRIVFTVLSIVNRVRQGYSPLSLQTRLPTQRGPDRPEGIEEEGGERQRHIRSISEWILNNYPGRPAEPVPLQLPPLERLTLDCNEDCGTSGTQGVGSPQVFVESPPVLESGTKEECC

Row | Structure (SMILES) | IC50
1 | CC(C)c1ccc(OCC(=O)Nc2cccc(C(=O)Nc3ccccc3C(=O)O)c2)cc1 | 16.9 µM (active)
2 | O=C(O)c1ccc(Cl)c(S(=O)(=O)Nc2ccccc2C(=O)Nc2ccc(Cl)cc2)c1 | 17.9 µM (active)
3 | Cc1cccc(OCC(=O)Nc2ccc(C(=O)Nc3ccccc3C(=O)O)cc2)c1C | 28.3 µM (active)
4 | COc1cc(/C=C2\SC(=O)N(Cc3ccc(F)cc3)C2=O)cc([N+](=O)[O-])c1O | 19.7 µM (active)
5 | C/C(=N\Nc1ccc(C(=O)O)cc1)c1ccc2c(c1)Nc1ccccc1S2 | 15.4 µM (active)
